Assay results from PubChem BioAssay AID2060902 (Molecular Pharmacology Branch, DTP, NCI, 2025).

Tested on: 485368-065-R3-J5-PDC spheroids with HUVEC/MSC, viability
Assay: Anticancer human tumor 485368-065-R3-J5-PDC patient-derived pancreatic carcinoma cell line growth inhibition [RAS]
Details: for viability, T/C: stronger effect = lower value
Summary of the method: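 Tumour cells grown as complex spheroids with HUVEC endothelial cells and mesenchymal stem cells, treated with RAS pathway inhibitor combinations. Each agent spans half-log steps from near clinical Cmax, or 10 microM where Cmax is unknown.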

[1] = curve of first compound, second compound 0.0316 µM
[2] = curve of first compound, second compound 0.1 µM
[3] = curve of first compound, second compound 0.316 µM
[4] = curve of first compound, second compound 1 µM
[5] = second compound 0.0316 µM, first compound 0.0316 µM
[6] = second compound 0.0316 µM, first compound 0.1 µM
[7] = second compound 0.0316 µM, first compound 0.316 µM
[8] = second compound 0.0316 µM, first compound 1 µM
[9] = second compound 0.1 µM, first compound 0.0316 µM
[10] = second compound 0.1 µM, first compound 0.1 µM
[11] = second compound 0.1 µM, first compound 0.316 µM
[12] = second compound 0.1 µM, first compound 1 µM
[13] = second compound 0.316 µM, first compound 0.0316 µM
[14] = second compound 0.316 µM, first compound 0.1 µM
[15] = second compound 0.316 µM, first compound 0.316 µM
[16] = second compound 0.316 µM, first compound 1 µM
[17] = second compound 1 µM, first compound 0.0316 µM
[18] = second compound 1 µM, first compound 0.1 µM
[19] = second compound 1 µM, first compound 0.316 µM
[20] = second compound 1 µM, first compound 1 µM
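Also: spheroids exposed to agents for seven days before readout.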

Compound: CCN1CCN(Cc2ccc(Nc3ncc(F)c(-c4cc(F)c5nc(C)n(C(C)C)c5c4)n3)nc2)CC1 + C#Cc1c(F)ccc2cc(O)cc(-c3ncc4c(N5CC6CCC(C5)N6)nc(OCC56CCCN5CC(F)C6)nc4c3F)c12
- IC50 [1]: 457 nM
- IC50 [2]: 313 nM
- IC50 [3]: 435 nM
- IC50 [4]: 179 nM
- IC50 (curve of first compound, second compound 3.16 µM): 47.1 nM
- IC50 (curve of first compound, second compound 10 µM): < 3.16 nM
- viability, T/C (second compound 0.0316 µM, first compound 0.00316 µM): 101%
- viability, T/C (second compound 0.0316 µM, first compound 0.01 µM): 87%
- viability, T/C [5]: 82.8%
- viability, T/C [6]: 72.5%
- viability, T/C [7]: 50.9%
- viability, T/C [8]: 41.4%
- viability, T/C (second compound 0.1 µM, first compound 0.00316 µM): 98.2%
- viability, T/C (second compound 0.1 µM, first compound 0.01 µM): 96.7%
- viability, T/C [9]: 76.1%
- viability, T/C [10]: 65.9%
- viability, T/C [11]: 50.1%
- viability, T/C [12]: 39.8%
- viability, T/C (second compound 0.316 µM, first compound 0.00316 µM): 94.4%
- viability, T/C (second compound 0.316 µM, first compound 0.01 µM): 85.9%
- viability, T/C [13]: 76.2%
- viability, T/C [14]: 72.1%
- viability, T/C [15]: 50.4%
- viability, T/C [16]: 40.6%
- viability, T/C (second compound 1 µM, first compound 0.00316 µM): 78.5%
- viability, T/C (second compound 1 µM, first compound 0.01 µM): 83.8%
- viability, T/C [17]: 75.1%
- viability, T/C [18]: 59.4%
- viability, T/C [19]: 40.1%
- viability, T/C [20]: 40%
- viability, T/C (second compound 3.16 µM, first compound 0.00316 µM): 69.4%
- viability, T/C (second compound 3.16 µM, first compound 0.01 µM): 63.9%
- viability, T/C (second compound 3.16 µM, first compound 0.0316 µM): 49.7%
- viability, T/C (second compound 3.16 µM, first compound 0.1 µM): 47.5%
- viability, T/C (second compound 3.16 µM, first compound 0.316 µM): 36.5%
- viability, T/C (second compound 3.16 µM, first compound 1 µM): 33.8%
- viability, T/C (second compound 10 µM, first compound 0.00316 µM): 48.8%
- viability, T/C (second compound 10 µM, first compound 0.01 µM): 37.2%
- viability, T/C (second compound 10 µM, first compound 0.0316 µM): 31.4%
- viability, T/C (second compound 10 µM, first compound 0.1 µM): 30.3%
- viability, T/C (second compound 10 µM, first compound 0.316 µM): 29.9%
- viability, T/C (second compound 10 µM, first compound 1 µM): 28.3%

Compound: C=CC(=O)Nc1cc(Nc2nccc(-c3cn(C)c4ccccc34)n2)c(OC)cc1N(C)CCN(C)C
- viability, T/C (compound 0.00316 µM): 108% [middle of 4 runs]
- viability, T/C (compound 0.01 µM): 94.1% [middle of 4 runs]
- viability, T/C (compound 0.0316 µM): 109% [middle of 4 runs]
- viability, T/C (compound 0.1 µM): 106% [middle of 4 runs]
- viability, T/C (compound 0.316 µM): 104% [middle of 4 runs]
- viability, T/C (compound 1 µM): 97.5% [middle of 4 runs]
- IC50 (curve of compound): > 1000 nM

Compound: NC1c2ccccc2OC12CCN(c1cnc3c(N4CCCc5ncccc54)n[nH]c3n1)CC2 (configuration not stated)
- viability, T/C (compound 0.0316 µM): 92.8% [middle of 4 runs]
- viability, T/C (compound 0.1 µM): 82.1% [middle of 4 runs]
- viability, T/C (compound 1 µM): 70.1% [middle of 4 runs]
- IC50 (curve of compound): > 10000 nM

Compound: CC(Nc1ccc2c(c1)OCCn1cc(N3C(=O)OCC3C(F)F)nc1-2)C(N)=O (configuration not stated)
- viability, T/C (compound 0.0316 µM): 96.7% [middle of 4 runs]
- viability, T/C (compound 0.1 µM): 90% [middle of 4 runs]
- viability, T/C (compound 0.316 µM): 99.2% [middle of 4 runs]
- viability, T/C (compound 1 µM): 82.1% [middle of 4 runs]
- viability, T/C (compound 3.16 µM): 82% [middle of 4 runs]
- viability, T/C (compound 10 µM): 58.4% [middle of 4 runs]
- IC50 (curve of compound): > 10000 nM

Compound: CC(C)NCC(C(=O)N1CCN(c2ncnc3c2C(C)CC3O)CC1)c1ccc(Cl)cc1 (configuration not stated) + C=CC(=O)N1CCN(c2nc(OCC3CCCN3C)nc3c(F)c(-c4nc(N)cc(C)c4C(F)(F)F)c(Cl)cc23)C(C)C1
- IC50 (curve of first compound, second compound 0.00316 µM): > 10000 nM
- IC50 (curve of first compound, second compound 0.01 µM): > 10000 nM
- IC50 [1]: > 10000 nM
- IC50 [2]: > 10000 nM
- IC50 [3]: > 10000 nM
- IC50 [4]: 9610 nM
- viability, T/C (second compound 0.00316 µM, first compound 0.0316 µM): 101%
- viability, T/C (second compound 0.00316 µM, first compound 0.1 µM): 93.7%
- viability, T/C (second compound 0.00316 µM, first compound 0.316 µM): 94.7%
- viability, T/C (second compound 0.00316 µM, first compound 1 µM): 82.9%
- viability, T/C (second compound 0.00316 µM, first compound 3.16 µM): 70.8%
- viability, T/C (second compound 0.00316 µM, first compound 10 µM): 61.6%
- viability, T/C (second compound 0.01 µM, first compound 0.0316 µM): 109%
- viability, T/C (second compound 0.01 µM, first compound 0.1 µM): 101%
- viability, T/C (second compound 0.01 µM, first compound 0.316 µM): 91.4%
- viability, T/C (second compound 0.01 µM, first compound 1 µM): 75.8%
- viability, T/C (second compound 0.01 µM, first compound 3.16 µM): 72.9%
- viability, T/C (second compound 0.01 µM, first compound 10 µM): 53.5%
- viability, T/C [5]: 102%
- viability, T/C [6]: 124%
- viability, T/C [7]: 93.3%
- viability, T/C [8]: 88.2%
- viability, T/C (second compound 0.0316 µM, first compound 3.16 µM): 68.6%
- viability, T/C (second compound 0.0316 µM, first compound 10 µM): 57%
- viability, T/C [9]: 102%
- viability, T/C [10]: 105%
- viability, T/C [11]: 93.1%
- viability, T/C [12]: 78.9%
- viability, T/C (second compound 0.1 µM, first compound 3.16 µM): 70.5%
- viability, T/C (second compound 0.1 µM, first compound 10 µM): 57.8%
- viability, T/C [13]: 100%
- viability, T/C [14]: 105%
- viability, T/C [15]: 97.3%
- viability, T/C [16]: 78.3%
- viability, T/C (second compound 0.316 µM, first compound 3.16 µM): 71.8%
- viability, T/C (second compound 0.316 µM, first compound 10 µM): 52.9%
- viability, T/C [17]: 101%
- viability, T/C [18]: 90.6%
- viability, T/C [19]: 102%
- viability, T/C [20]: 84.6%
- viability, T/C (second compound 1 µM, first compound 3.16 µM): 68%
- viability, T/C (second compound 1 µM, first compound 10 µM): 49.1%
